Laboratory results taken from article PMC7797062, “Structural basis for guide RNA trimming by RNase D ribonuclease in Trypanosoma brucei” (Nucleic Acids Research, 2020).

Experiments:
[1] = biological target: T1, TbRND (RND-WT) (Trypanosoma brucei, UniProt Q38DE2); assay: X-ray crystal structure (soak of apo crystals); type: binding; conditions: 10 mM NMP and 10 mM MnCl2 soak, 10 min
T1 construct: gene Tb09.211.3670; residues 41-390 (N-terminal 40 residues with mitochondrial localization signal removed); codon-optimized gene; E. coli BL21(DE3); His-Sumo tag cut with Ulp1; monomer per asymmetric unit
T1 sequence (Q38DE2 41-390): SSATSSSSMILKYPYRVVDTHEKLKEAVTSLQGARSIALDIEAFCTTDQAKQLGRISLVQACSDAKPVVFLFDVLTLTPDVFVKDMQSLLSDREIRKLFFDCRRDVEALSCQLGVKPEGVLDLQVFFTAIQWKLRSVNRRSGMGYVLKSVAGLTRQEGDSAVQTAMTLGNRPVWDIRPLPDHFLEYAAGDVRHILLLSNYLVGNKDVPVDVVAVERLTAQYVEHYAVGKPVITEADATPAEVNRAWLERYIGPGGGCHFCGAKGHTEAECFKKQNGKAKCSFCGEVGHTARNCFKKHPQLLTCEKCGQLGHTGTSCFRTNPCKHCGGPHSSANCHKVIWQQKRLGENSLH

[2] = biological target: TbRND ΔZF_3-4 (Trypanosoma brucei, UniProt Q38DE2 41-341); assay: X-ray crystallography (1.77 A); Ca2+ (10 mM CaCl2), Zn2+; EMSA: 20 mM Tris-HCl pH 8.0, 200 mM NaCl, 2 mM DTT, 0.2 uM FAM-RNA, 1 h on ice; 6% native PAGE in 0.5x TBE at 4 C; conditions: protein: recombinant; tags: His-SUMO removed by Ulp1; single strand
[3] = biological target: T2, RND-Exo (Trypanosoma brucei, UniProt Q38DE2 41-296); assay: EMSA; no obvious shift up to 20 uM protein, 0.2 uM RNA; EMSA: 20 mM Tris-HCl pH 8.0, 200 mM NaCl, 2 mM DTT, 0.2 uM FAM-RNA, 1 h on ice; 6% native PAGE in 0.5x TBE at 4 C; conditions: protein: recombinant; tags: His-SUMO removed by Ulp1; label: 5'-FAM; single strand
T2 sequence: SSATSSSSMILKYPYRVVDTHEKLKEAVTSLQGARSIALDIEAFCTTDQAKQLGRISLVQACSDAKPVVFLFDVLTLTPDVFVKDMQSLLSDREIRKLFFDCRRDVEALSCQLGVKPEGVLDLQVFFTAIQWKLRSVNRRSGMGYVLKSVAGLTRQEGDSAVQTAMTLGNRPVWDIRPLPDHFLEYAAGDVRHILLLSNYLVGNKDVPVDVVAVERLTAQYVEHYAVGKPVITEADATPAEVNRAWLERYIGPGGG

O=c1ccn([C@@H]2O[C@H](COP(=O)(O)O)[C@@H](O)[C@H]2O)c(=O)[nH]1 [UMP]
X-ray crystal structure (soak of apo crystals) ([1]; site: ZF1 groove): one well-defined UMP molecule was captured in the groove of ZF1

Nc1ccn([C@@H]2O[C@H](COP(=O)(O)O)[C@@H](O)[C@H]2O)c(=O)n1 [CMP]
X-ray crystal structure (soak of apo crystals) ([1]; site: ZF1 groove, also R2 site of Exo domain): one CMP nucleotide was bound in ZF1 groove

Nc1nc2c(ncn2[C@@H]2O[C@H](COP(=O)(O)O)[C@@H](O)[C@H]2O)c(=O)[nH]1 [GMP]
X-ray crystal structure (soak of apo crystals) ([1]; sites: R0 and R2 of Exo domain, ZF1 groove, ZF2 groove (Mn2+-dependent), 2.25 A): we observed two GMP molecules in the G-form structure

Nc1ncnc2c1ncn2[C@@H]1O[C@H](COP(=O)(O)O)[C@@H](O)[C@H]1O [AMP]
X-ray crystal structure (soak of apo crystals) ([1]; site: R0 of Exo domain (none in ZF1 groove), b55 says ATP soaked crystals): one AMP was captured at the R0 site in the A-form structure

B1: RNA-12U (ssRNA)
RNA: UUUUUUUUUUUU
binding result [2]: binds

B2: RNA1 (ssRNA)
RNA: AACUUGUUUUUUUU
binding result [3]: no binding
